Data set [1] has as its system Jurkat cells. The experiment in a line: Flow cytometry, binding of SEVI-biotin fibrils to Jurkat cell surface (SA-FITC). It counts as cell-based, human. Conditions: for MFI (mean fluorescent intensity) / SA-FITC+ (cells with bound fibrils): SEVI-biotin 1 h. How it is done:
Cells were incubated for 1 h at 37° C., washed, and stained for 1 h with a covalent conjugate of streptavidin and fluorescein isothiocyanate (SA-FITC). Cells were washed and run on an Accuri C6 Flow Cytometer (Accuri Cytometers, Ann Arbor, Mich.). Data were analyzed using FlowJo (TreeStar Inc, Ashland, Oreg.).
After that time, fibrillar structures were examined by ThT fluorescence. ThT changes in fluorescence intensity when intercalated into the β-sheet structure common to amyloid fibrils; therefore, ThT fluorescence serves as a surrogate measure for fibrillar structure of SEVI and for the stability of SEVI fibrils. […] Binding of the fibrils to the cell surface was detected using SA-FITC. […] Surface-bound fibrils were detected with SA-FITC and measured by flow cytometry. Results are shown as percentage of cells with bound fibrils (SA-FITC+) as well as mean fluorescent intensity (MFI).

Data set [2] addresses T1, SEVI fibrils (Homo sapiens, UniProt P15309).
T1 sequence (P15309 248-286 limits assumed): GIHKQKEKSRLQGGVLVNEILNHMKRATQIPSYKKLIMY
The data set can be described thus: Fluorescence polarization, displacement of FITC-heparin from SEVI fibrils. In kind it is binding. Set-up: PAP248-286 and biotinylated PAP248-286, in which a biotin was added to the amino terminus of the peptide, was synthesized; made in house; host or cells: chemical peptide synthesis; fibrils formed by agitation in PBS at 37 °C for 72 h. Conditions: 16 μg/ml FITC-heparin; 1 h room temperature. How it is done:
Samples were incubated 1 h at room temperature and read on a PerkinElmer Life Sciences Envision 2012 multilabel reader (PerkinElmer, Waltham, Mass.) at an excitation λ=480 nm and emission λ=535 nm. The horizontal and vertical polarized fluorescence intensities were recorded, and the calculated polarization was determined in millipolarization units.
In order to find other small molecules that bind SEVI, a fluorescence polarizing screen was developed. Polarized light passed over a small unbound molecule with a fluorescent moiety will produce rapid rotation and will result in fluorescence that is de-polarized. Polarized light passed over SEVI bound to a small molecule with a fluorescent moiety will result in fluorescence that is polarized. […] Samples were incubated at excitation of λ=480 and emission λ=535 (FIG. 8, left graph). […] Samples were incubated for 1 hour at room temperature and polarized fluorescence was measured.
ThT is able to intercalate into the generic β-sheet structure of amyloid fibrils. […] This molecule binds to Aβ fibrils and interferes with the ability of Aβ-binding proteins to interact with the fibrils.

Data set [3] relates to HIV-1 (IIIB). The experiment in a line: SEVI mediated enhancement of HIV infection, CEM 5.25 cells (luciferase). In kind it is cell-based. Conditions: 25 μg/mL SEVI fibrils; compound 5.5, 11 and 16.5 μg/mL; 72 hrs. How it is done:
CEM 5.25 cells were exposed to infectious HIV-1 (IIIB) for 2 hours in the absence or presence (25 μg/mL) of SEVI fibrils; BTA-EG4 (FIG. 5A) and EG6 (FIG. 5B) was added at concentrations of 5.5, 11 and 16.5 μg/mL.

The subject of data set [4] is HIV-1 IIIB. The data set can be described thus: Semen mediated enhancement of HIV infection, CEM 5.25 cells (luciferase). It counts as cell-based. Conditions: 50% semen, diluted 15 fold; 48 hours. How it is done:
After 10 minutes these stocks were diluted 15 fold into CEM 5.25 cells.
After 10 minutes, the stocks were diluted 15 fold and incubated with CEM 5.25 cells. […] After 90 minutes cells were washed to remove any unbound virus and bound virions were detected using a p24 ELISA.

Data set [5] relates to HIV-1 IIIB. The experiment in a line: Virus binding assay, HIV-1 IIIB virions to Jurkat cells (p24). It counts as cell-based. Conditions: for SEVI-enhanced binding of HIV-1 IIIB virions to Jurkat cells (p24 ELISA): SEVI-pretreated virions, 90 min, increasing concentrations. How it is done: After 90 minutes, cells were washed to remove any unbound virus and bound virions were detected using a p24 ELISA. […]
After 90 min, cells were washed to remove any unbound virus, and bound virions were detected using an HIV-1 p24 antigen capture assay (Advanced Bioscience Laboratory). […]
After 90 min, cells were washed to remove any unbound virus, and bound virions were detected using an HIV-1 p24 antigen capture assay (Advanced Bioscience Laboratory, Rockville, Md.).
A general note: ELISA stands for enzyme-linked immunosorbent assay.

Data set [6] has as its system cervical epithelial cell lines SiHa, A2En (endocervical), and 3EC1 (ectocervical). The experiment in a line: Viability of cervical cell lines (resazurin, AlamarBlue). It counts as cell-based, human. Conditions: up to 10 times the IC50 (66 μg/ml). From the text: Loss of this protective layer leads to an increased ability for HIV-1 to cross the mucosal barrier, and inflammatory effects drive recruitment of HIV-1 target cells, further decreasing the natural barriers against successful transmission of HIV. […] To do this, the following cell lines were used: 1) SiHa cells, a cervical carcinoma cell line; 2) A2En cells, a primary cell-derived line from the endocervical […]; and 3) 3EC1 cells, a primary cell-derived line from the ectocervical […]. […] Viability was assessed at 24 h by using the resazurin cytotoxicity assay. Resazurin cytotoxicity data were confirmed by trypan blue counts of viable cells.

The subject of data set [7] is A2En, 3EC1, and SiHa Cells. The data set can be described thus: Cytokine and chemokine induction in cervical cell lines (ELISA). Conditions: 6 h; varying concentrations up to 66 μg/ml.
Description: Cytokine and chemokine production was assessed at 12 h by ELISA (R&D systems). Cells were also treated with 0.1% nonoxynol-9 as a positive control for cytotoxicity and with 0.1 μg/ml FSL1, a synthetic diacylated lipoprotein derived from Mycoplasma salivarium (InvivoGen, San Diego, Calif.), as a positive control for chemokine production.
Nonoxynol-9 (non-9), a spermicide, was used as a positive control. […] Cell culture supernatants were then assessed for the presence of the inflammatory cytokines and chemokines Mip-3α (FIG. 5B), IL-8 (FIG. 16C), IL-1β, and TNF-α.
The target in data set [8] is aggregated Alzheimer disease-related Aβ(1-42) peptides (Homo sapiens, UniProt P05067). Conditions: read-out: Kd for binding to aggregated Aβ(1-42) peptides; same fluorescence binding assay. How it is done:
These incubations were performed in duplicate runs and allowed to equilibrate overnight at room temperature. After equilibration, each solution was centrifuged at 16,000×g for 30 min. The supernatants were separated from the pelleted fibrils, and 220 μl of fresh PBS was added to resuspend the pellets. […] Error bars represent standard deviations from the mean. […] The data were processed using Origin 7.0 (MicroCal Software, Inc., Northampton, Mass.).

Data set [9] has as its system HIV-1ADA. How it is done:
Treated virions were then added to 5×10^4 CEM-M7 cells/well in 96-well flat-bottomed tissue culture plates. After 2 h, the medium […] were replaced. Infection was assayed after 48 h by quantifying luciferase expression using the Promega Dual-Luciferase assay and a Beckman Coulter DTX880 plate reader.

The test system of data set [10] is HIV-1BaL. How it is done:
Cells were washed at 3 h, and infection was analyzed at day 4 using the HIV-1 p24 antigen capture assay (Advanced Bioscience Laboratory).

The test system of data set [11] is HIV-1ADA. Conditions: individual semen sample, 50%; R5 virus. How it is done: (§1) After 15 min, the semen and virus mixture was diluted 1:15 into 5×10^4 CEM-M7 cells/well in a 96-well plate. Cells were washed after 1 h, and infection was assayed at 48 h as above.
(§2) As human semen has been reported to be toxic to cultured cells, a protocol that minimized this toxicity was used. Pooled human semen was added to HIV-1IIIB virus in a 1:1 dilution. After 15 min, this solution was added to cells at a 1:15 dilution for a final concentration of 3.3%.

Data set [12] relates to HIV-1IIIB. Conditions: pooled human semen 1:1, then 1:15; 5.5, 11, 22.5 μg/ml. How it is done: as §1, §2
Data set [13] has as its system A2En cells. Conditions: 15 μg/ml SEVI; 5.5, 11, 22.5 μg/ml; 24 h. How it is done:
Supernatant was collected at 6 and 24 h, and the production of the chemokines IL-8 and Mip-3α was measured by ELISA (R&D Systems). […] After 6 h, supernatants were collected, and the production of the chemokines IL-8 and Mip-3α was measured by ELISA (R&D systems, Minneapolis, Minn.).
HIV stimulates the release of MIP-3 and IL-8 from vaginal and cervical epithelial cells.

Data set [14] deals with HIV-1ADA. Conditions: 22.5 μg/ml BTA-EG6.
Description: After 90 min, cells were washed to remove any unbound virus, and bound virions were detected using a p24 ELISA. […] At 24 h, supernatants were collected and analyzed by ELISA for the presence of IL-8.
Surface-bound virions were then measured by p24 ELISA after washing off unbound virus. […] Additionally, this experiment was performed using A2En cells, a primary cell-derived endocervical cell line.
[15] abbreviates: heparin (100 μg/ml) positive control.

Entries after “also recorded” stand apart in the source; their conditions may differ.

The source of these data is patent publication US20130157924A1, “REDUCING TRANSMISSION OF SEXUALLY TRANSMITTED INFECTIONS” (THE REGENTS OF THE UNIVERSITY OF CALIFORNIA, priority 2010, published 2013).

Chain of aggregated Alzheimer disease-related Aβ(1-42) peptides (P05067 672-713): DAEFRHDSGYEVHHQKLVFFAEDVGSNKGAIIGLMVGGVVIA

On to heparin [reference compound], for which, in [1] (setting [15]), the “MFI (mean fluorescent intensity)” value is recorded as 376 and the “SA-FITC+ (cells with bound fibrils)” value was found to be 31.7%. Besides, the “binding to SEVI fibrils (displacement of FITC-heparin, polarized fluorescence)” value (“binding to SEVI fibrils” below) in data set [2] was “polarization decreased”.

Take `Cc1ccc2nc(-c3ccc(NCCOCCOCCOCCO)cc3)sc2c1` [BTA-EG4]: in data set [3], the “SEVI mediated enhancement of HIV infection (luciferase activity)” value was “decreasing levels of luciferase activity; also recorded: inhibit SEVI mediated enhancement of HIV infection”. The “semen mediated enhancement of HIV infection (luciferase activity)” value in [4] was “decrease in luciferase activity; also recorded: inhibit semen mediated enhancement of HIV Infection”. In addition, the “SEVI-enhanced binding of HIV-1 IIIB virions to Jurkat cells (p24 ELISA)” value in [5] was “decrease in HIV-1 binding to the cells; also recorded: decrease SEVI enhanced binding of HIV to target cells”. The cell viability result in [6] is “did not affect the cell viability; also recorded: not toxic to cervical epithelial Cells”. Further, the “production of inflammatory cytokines and chemokines (Mip-3α, IL-8, IL-1β, TNF-α)” value in data set [7] is “do not induce cytokine production in cervical epithelial cells”. Besides, in data set [2], the “binding to SEVI fibrils” value is given as “capable of binding SEVI; also recorded: detects binding”.

In the case of `Cc1ccc2nc(-c3ccc(NCCOCCOCCOCCOCCOCCO)cc3)sc2c1` [BTA-EG6], in [3], the “SEVI mediated enhancement of HIV infection (luciferase activity)” value is given as “decreasing levels of luciferase activity; also recorded: inhibit SEVI mediated enhancement of HIV infection”. For the same compound, the “semen mediated enhancement of HIV infection (luciferase activity)” value in [4] is “decrease in luciferase activity; also recorded: inhibit semen mediated enhancement of HIV Infection”. In addition, in data set [5] (Jurkat cells, no SEVI), the “binding of HIV virions to the cell surface in the absence of SEVI” value is recorded as “no effect on the binding of HIV virions to the cell surface; also recorded: no effect on the binding of HIV-1 virions alone to cells”. In addition, the “SEVI-enhanced binding of HIV-1 IIIB virions to Jurkat cells (p24 ELISA)” value in data set [5] is “decrease in HIV-1 binding to the cells; also recorded: decrease SEVI enhanced binding of HIV to target cells; also recorded: efficiently inhibited SEVI-mediated enhancement of HIV-1IIIB attachment to Jurkat cells”; in data set [5] (listed as BTAEG6), “efficiently abrogated”. The Kd (commonly the equilibrium constant for the complex coming apart) in data set [8] was 111 ± 32 nM. Moreover, the “MFI (mean fluorescent intensity)” value in data set [1] (BTA-EG6 high (27 μg/ml)) was 38.7; in data set [1] (BTA-EG6 low (5.5 μg/ml)) it was 95.3. Besides, the “SA-FITC+ (cells with bound fibrils)” value in [1] (BTA-EG6 high (27 μg/ml)) was 21.2%; in data set [1] (BTA-EG6 low (5.5 μg/ml)) it was 36.6%. Besides, the “interaction of SEVI fibrils with the cell surface” value in [1] (Jurkat T cells, increasing concentrations) was “inhibited the ability of SEVI fibrils to interact with and bind the cell surface; also recorded: inhibits the interaction of SEVI fibrils with the cell surface”. Also, the “SEVI-mediated enhancement of HIV-1 infection (luciferase)” value in data set [9] (15 μg/ml SEVI, R5 strain) is given as “significant dose-dependent inhibition”. In data set [9] (absence of SEVI), the “infectivity of HIV-1ADA in the absence of SEVI” value is “No effect on the infectivity of HIV-1ADA”. The “SEVI-mediated enhancement of HIV-1 infection in PBMCs (p24)” value in data set [10] (15 μg/ml SEVI, day 4) was “able to inhibit SEVI-mediated enhancement of HIV-1 infection in PBMCs”. The “infectivity of HIV-1BaL in PBMCs in the absence of SEVI” value in data set [10] (absence of SEVI) is “no effect on the infectivity of HIV-1BaL”. Besides, the results for the “semen-mediated enhancement of HIV-1 infection (luciferase)” value in [11] and in data set [12] were “this effect extended to infection with an R5 virus” and “efficiently inhibited the semen mediated enhancement of HIV-1 infection; also recorded: inhibits semen-mediated enhancement of HIV-1 infectivity”, respectively. Moreover, the “IL-8 release from cells treated with virus and SEVI” value in data set [13] is listed as “able to inhibit this release”. The cell viability entry in data set [6] is “did not affect the cell viability; also recorded: did not have any effects on cell viability; also recorded: not toxic to cervical cells”; in data set [6] (listed as EG6), “not toxic to cervical epithelial Cells”. Further, in data set [14], the “SEVI-enhanced binding of virions to A2En cells (p24)” value is given as “inhibited”. The “production of inflammatory cytokines and chemokines (Mip-3α, IL-8, IL-1β, TNF-α)” value in data set [7] is listed as “did not lead to the release of any of these cytokines or chemokines; also recorded: do not induce cytokine production in cervical epithelial cells; also recorded: does not induce inflammatory chemokine production in cervical epithelial cells”. Also, the “binding to SEVI fibrils” value in [2] is reported as “capable of binding SEVI; also recorded: able to displace fluorescent heparin from the SEVI fibrils in a dose-dependent fashion; also recorded: detects binding; also recorded: binds SEVI fibrils”.
